Results as given in patent US20040110803A1, “Methods and compositions for the use of D-malic acid to decrease serum triglyceride, cholesterol and lipoprotein levels” (priority 2002, published 2004).
Counter-ions that a name gives are not always drawn. Like-named read-outs stand apart in the source and are kept apart here.

Legend:
Zucker fa/fa rat [1] = test: Experiment I: body weight and serum analysis of Zucker fa/fa rats given D,L-malic acid, sodium salt in drinking water; type: in vivo; set-up: Serum T Chol / Serum HDL / Serum LDL / Serum VLDL / Serum Glucose: unit not given here; settings: for Body Wt. / Serum Glucose / Serum HDL / Serum T Chol / Serum Triglyceride / Serum BUN / Serum Creatine / Serum K+ / Serum Na+ / Serum ALT / Serum AST / Serum LDL / Serum VLDL: mean ± SEM; for Body Wt.: in g; for Serum BUN / Serum Creatine: in mg/dL (unit assumed); for Serum K+ / Serum Na+: in mmol/L (unit assumed); for Serum ALT / Serum AST: in U/L (unit assumed); for Serum VLDL: calculated
Excerpt: The Zucker fa/fa rat model was selected to test the effects of malic acid supplements to the diet. The Zucker fa/fa rat is a genetically obese rat associated to elevated leptin levels in the blood. Among humans and most animal models, leptin is known to […], leading to elevated caloric intake and obesity. Associated with the leptin production is an elevation in serum insulin (Giridharan 1998). Thus, obesity can arise from the increase food intake and/or the lipogenic effects of insulin on adipose tissue and liver.
Two separate experiments were conducted on the Zucker fa/fa rat. The first experiment served as a pilot study for the second. In Experiment I, ten male, 7-week-old Zucker fa/fa rats were divided into two parametric groups based upon the results of a clinical serum analysis for lipids, glucose, hepatic enzymes, and ions. […] The control group of five rats received only tap water. After 2, 4, 7, and 10 and 12 weeks of treatment, 1-2 mL whole blood was collect from each rat via the tail caudal vein and the serum retained for analysis. All serum analysis was conducted in the out-patient clinical laboratory of the University Hospital of the University of Alabama at Birmingham with a Synchron LX System. The following methods for each parameter are used in their automated clinical systems.

[2] = system: liver of Zucker fa/fa rat; test: Experiment I: hepatic nucleotide analysis by HPLC of frozen-acid extracted liver; type: in vivo; settings: 12 weeks treatment
Procedure: After eight weeks of treatment, Experiment I was concluded with all ten rats being anesthetized with pentobarbital (40 mg/kg, i.p). Immediately prior to the rat's euthanasia, a portion of the medial lobe of the liver was weighed, immediately frozen, pulverized and extracted in 12% perchloric acid in dry ice for nucleotide analysis. The acid extracted tissue was thawed, neutralized in saturated potassium bicarbonate and centrifuged at 10,000×g for 15 minutes. The final supernatant was analyzed for nucleotides by HPLC according to the method of Jenkins, et al (1988).

Zucker fa/fa rat [3] = system: Zucker fa/fa rat
Procedure: After eight weeks of treatment, Experiment I was concluded with all ten rats being anesthetized with pentobarbital (40 mg/kg, i.p). […] In addition to body weight, the heart, liver, epididymal fat and left kidney were weighed. The aorta and a portion of the medial lobe of the liver were fixed in buffered 10% formalin and prepared for paraffin embedding and sectioning for pathological analysis.

Zucker fa/fa rat [4] = settings: in vivo
Procedure: (§1) In experiment II, forty male Zucker fa/fa rats at five to seven weeks of age began treatment similarly to the rats in Experiment I. At about 5 weeks of age, whole blood was collected from the tail caudal vein of each rat and lipid profiles were measured on the serum.
(§2) Food and water consumption was measured daily for each cage of two rats. Body weight was measured and tail caudal vein blood samples were collected at 6, 8, 10, 12, 14, 16, and 18 and 24 weeks of age. Rats received their oral treatment of malic acid isomers prior to the onset of hyperlipidemia and continued for 16 weeks. The lipid/liver profile was measured on the serum of each rate with the determination of serum triglycerides, total cholesterol, HDL, glucose, AST and ALT with the same procedures of Experiment I.
(§3) Experiment II. This follow-up experiment doubled the number of rats per group (ten/group) and included treatment groups to distinguish the roles of the D isomer and the L isomer of malic acid (Control, L-Malic, D,L-Malic, and D-Malic Acid).

Zucker fa/fa rat [5] = test: Experiment I: body weight and serum analysis of Zucker fa/fa rats given D,L-malic acid, sodium salt in drinking water; type: in vivo
Zucker fa/fa rat [6] = test: Experiment II: L-, D,L- and D-malic acid in drinking water, food/water consumption, body weight, serum lipid/liver profile; settings: for linear slope of body weight versus serum triglycerides, vs control and L-malic acid treated rats: FIG. 3, p≦0.01; for effect on serum lipid levels (hypolipidemic effect): oral, Zucker obese rat, conclusion in words; for water consumption, means between groups: L-malic acid vs control at 10 and 11 weeks of treatment
Procedure: as §1, §2, §3

liver mitochondria = settings: for concentrations at which not metabolized by mitochondria: oxygen consumption, FIG. 5
Procedure: To determine the effect of D-malic acid on hepatic mitochondria, mitochondria from the Sprague Dawley rat used for isoenzyme studies were prepared according to the method of Johnson and Lardy (1967). The […] pellet was resuspended in cold sucrose buffer and recentrifuged at 600×g. This supernatant was mixed with the original 600×g supernatant. The 10,000×g mitochondria pellet was suspended in 5 mL of sucrose buffer. […] Consumption of oxygen was represented as percent of oxygen saturation.

[7] = after four and six weeks of treatment, but not beyond, P≦0.05
[8] = −2 weeks Treatment (before dosing)
[9] = after 18 and 24 weeks of treatment, P≦0.01

O=C(O)CC(O)C(=O)O (racemic) [D,L-malic acid, D,L-malic acid, sodium salt]
Body Wt. (Zucker fa/fa rat [1]; 0 weeks Treatment (start of dosing)): 484 ± 10 | Serum Glucose (Zucker fa/fa rat [1]; 2 weeks Treatment): 167 ± 14 | Serum HDL (Zucker fa/fa rat [1]; 2 weeks Treatment): 92 ± 4 | Serum T Chol (Zucker fa/fa rat [1]; 2 weeks Treatment): 96 ± 5 | Serum Triglyceride (Zucker fa/fa rat [1]; 2 weeks Treatment): 358 ± 51 mg % | Body Wt. (Zucker fa/fa rat [1]; 2 weeks Treatment): 553 ± 14 | Serum BUN (Zucker fa/fa rat [1]; 2 weeks Treatment): 13 ± 0.5 | Serum Creatine (Zucker fa/fa rat [1]; 2 weeks Treatment): .42 ± .02 | Serum K+ (Zucker fa/fa rat [1]; 2 weeks Treatment): 5.6 ± 0.3 | Serum Na+ (Zucker fa/fa rat [1]; 2 weeks Treatment): 141 ± 0.6 | Serum Glucose (Zucker fa/fa rat [1]; 4 weeks Treatment): 156 ± 12 | Serum HDL (Zucker fa/fa rat [1]; 4 weeks Treatment): 87 ± 3 | Serum T Chol (Zucker fa/fa rat [1]; 4 weeks Treatment): 99 ± 5 | Serum Triglyceride (Zucker fa/fa rat [1]; 4 weeks Treatment): 522 ± 82 mg % | Serum ALT (Zucker fa/fa rat [1]; 4 weeks Treatment): 64 ± 4 | Serum AST (Zucker fa/fa rat [1]; 4 weeks Treatment): 145 ± 13 | Body Wt. (Zucker fa/fa rat [1]; 4 weeks Treatment): 592 ± 15 | Serum BUN (Zucker fa/fa rat [1]; 4 weeks Treatment): 12 ± 0.6 | Serum Creatine (Zucker fa/fa rat [1]; 4 weeks Treatment): .38 ± .02 | Serum K+ (Zucker fa/fa rat [1]; 4 weeks Treatment): 5.8 ± 0.1 | Serum Na+ (Zucker fa/fa rat [1]; 4 weeks Treatment): 143 ± 1.1 | Serum Glucose (Zucker fa/fa rat [1]; 7 weeks Treatment): 173 ± 10 | Serum HDL (Zucker fa/fa rat [1]; 7 weeks Treatment): 110 ± 5 | Serum T Chol (Zucker fa/fa rat [1]; 7 weeks Treatment): 120 ± 8 | Serum Triglyceride (Zucker fa/fa rat [1]; 7 weeks Treatment): 422 ± 44 mg % | Serum ALT (Zucker fa/fa rat [1]; 7 weeks Treatment): 68 ± 2 | Serum AST (Zucker fa/fa rat [1]; 7 weeks Treatment): 126 ± 6 | Body Wt. (Zucker fa/fa rat [1]; 7 weeks Treatment): 660 ± 19 | Serum BUN (Zucker fa/fa rat [1]; 7 weeks Treatment): 11 ± 0.3 | Serum Creatine (Zucker fa/fa rat [1]; 7 weeks Treatment): .34 ± .02 | Serum K+ (Zucker fa/fa rat [1]; 7 weeks Treatment): 5.4 ± 0.2 | Serum Na+ (Zucker fa/fa rat [1]; 7 weeks Treatment): 144 ± 0.4 | Serum Glucose (Zucker fa/fa rat [1]; 10 weeks Treatment): 141 ± 10 | Serum HDL (Zucker fa/fa rat [1]; 10 weeks Treatment): 107 ± 10 | Serum LDL (Zucker fa/fa rat [1]; 10 weeks Treatment): 1.4 ± 1.4 | Serum T Chol (Zucker fa/fa rat [1]; 10 weeks Treatment): 123 ± 14 | Serum Triglyceride (Zucker fa/fa rat [1]; 10 weeks Treatment): 430 ± 39 mg % | Serum VLDL (Zucker fa/fa rat [1]; 10 weeks Treatment): 4 ± 4 | Serum ALT (Zucker fa/fa rat [1]; 10 weeks Treatment): 69 ± 4 | Serum AST (Zucker fa/fa rat [1]; 10 weeks Treatment): 94 ± 2 | Body Wt. (Zucker fa/fa rat [1]; 10 weeks Treatment): 708 ± 26 | Serum BUN (Zucker fa/fa rat [1]; 10 weeks Treatment): 16 ± 1.2 | Serum Creatine (Zucker fa/fa rat [1]; 10 weeks Treatment): .32 ± .02 | Serum K+ (Zucker fa/fa rat [1]; 10 weeks Treatment): 6.6 ± 0.2 | Serum Na+ (Zucker fa/fa rat [1]; 10 weeks Treatment): 143 ± 0.8 | Serum Glucose (Zucker fa/fa rat [1]; 12 weeks Treatment): 153 ± 9 | Serum HDL (Zucker fa/fa rat [1]; 12 weeks Treatment): 117 ± 9 | Serum LDL (Zucker fa/fa rat [1]; 12 weeks Treatment): 6 ± 0.4 | Serum T Chol (Zucker fa/fa rat [1]; 12 weeks Treatment): 137 ± 14 | Serum Triglyceride (Zucker fa/fa rat [1]; 12 weeks Treatment): 437 ± 35 mg % | Serum VLDL (Zucker fa/fa rat [1]; 12 weeks Treatment): 14 ± 5 | Serum ALT (Zucker fa/fa rat [1]; 12 weeks Treatment): 71 ± 6 | Serum AST (Zucker fa/fa rat [1]; 12 weeks Treatment): 115 ± 16 | Body Wt. (Zucker fa/fa rat [1]; 12 weeks Treatment): 722 ± 30 | Serum Creatine (Zucker fa/fa rat [1]; 12 weeks Treatment): .34 ± .02 | Serum K+ (Zucker fa/fa rat [1]; 12 weeks Treatment): 6.4 ± 0.1 | Serum Na+ (Zucker fa/fa rat [1]; 12 weeks Treatment): 141 ± 0.6 | serum ALT vs control (Zucker fa/fa rat [1]; [7]): significantly lowered | serum glucose, sodium, or potassium, HCO3, chloride, and BUN levels vs control (Zucker fa/fa rat [1]; in words): no detectable affect | serum triglyceride levels vs control (Zucker fa/fa rat [1]; ten and twelve weeks of treatment, P≦0.001): differences were more remarkable | effect on body weight (Zucker fa/fa rat [1]; vs control, in words): no effect | Serum Glucose (Zucker fa/fa rat [1]; [8]): 147 ± 2 | Serum HDL (Zucker fa/fa rat [1]; [8]): 90 ± 3 | Serum T Chol (Zucker fa/fa rat [1]; [8]): 91 ± 4 | Serum Triglyceride (Zucker fa/fa rat [1]; [8]): 387 ± 41 mg % | Body Wt. (Zucker fa/fa rat [1]; [8]): 359 ± 6 | Serum BUN (Zucker fa/fa rat [1]; [8]): 21 ± 0.9 | Serum Creatine (Zucker fa/fa rat [1]; [8]): 0.46 ± 0.02 | Serum K+ (Zucker fa/fa rat [1]; [8]): 6.1 ± 0.2 | Serum Na+ (Zucker fa/fa rat [1]; [8]): 147 ± 0.2 | hepatic tissue NAD levels vs control [2]: elevated but not significantly | hepatic tissue levels of NADP vs control [2]: significantly elevated | mean hepatic purine nucleotides vs control [2]: No significant differences | Mean Hepatic Purine Dinucleotide Levels: NAD ([2]; ± SEM): 350 ± 23 nmoles/gm tissue wet wt. | Mean Hepatic Purine Nucleotides Level: ADP ([2]; ± SEM): 125 ± 7 nmoles/gm tissue wet wt. | Mean Hepatic Purine Nucleotides Level: AMP ([2]; ± SEM): 168 ± 18 nmoles/gm tissue wet wt. | Mean Hepatic Purine Nucleotides Level: ATP ([2]; ± SEM): 556 ± 35 nmoles/gm tissue wet wt. | Mean Hepatic Purine Nucleotides Level: Adenosine ([2]; ± SEM): 65 nmoles/gm tissue wet wt. | Mean Hepatic Purine Dinucleotide Levels: NADP ([2]; ± SEM, significantly different P ≦ 0.05): 61.7 ± 3.8 nmoles/gm tissue wet wt. | histological examination of the aorta (Zucker fa/fa rat [3]; 12 week (20 weeks of age)): no pathology associated with plaque formation | Percent Fatty Deposition in Hepatocytes, Mean of 200 cells/rat ± SEM (Zucker fa/fa rat [3]; 12 week treated, liver sections 8 um): 45.69 ± 0.62% | Mean Organ Weights: Epididymal Fat (Zucker fa/fa rat [3]; 12 week treated, ± SEM): 0.350 ± .050 gram | percent of fatty inclusions in hepatocytes vs control (Zucker fa/fa rat [3]; 200 hepatocytes, liver sections 8 um): no significant differences | water consumption, means between groups (Zucker fa/fa rat [4]): did not differ | serum HDL cholesterol vs control (Zucker fa/fa rat [5]; after eight weeks of treatment, P≦0.05): significant decrease | serum AST vs control (Zucker fa/fa rat [5]; [7]): significantly lowered | serum total cholesterol vs control (Zucker fa/fa rat [5]; after six weeks of treatment, P≦0.05): significant decrease | serum triglyceride levels vs control (Zucker fa/fa rat [5]; two to eight weeks of treatment, P≦0.01): significantly decreased | linear slope of body weight versus serum triglycerides, vs control and L-malic acid treated rats (Zucker fa/fa rat [6]): differs significantly | mean serum triglycerides vs controls (Zucker fa/fa rat [6]; [9]): decreased below controls | effect on serum lipid levels (hypolipidemic effect) (Zucker fa/fa rat [6]): significant hypolipidemic effect

O=C(O)C[C@@H](O)C(=O)O [D-malic acid, D-malic acid, sodium salt]
effect on the metabolism of L-malic acid by mitochondria (liver mitochondria; 20 umoles/5 mL D-malic acid): inhibited | transport of L-malic acid into the mitochondria (liver mitochondria; mitochondrial incubations): partially blocks | concentrations at which not metabolized by mitochondria (liver mitochondria): less than 40 umoles/5 mL | concentrations at which not metabolized by mitochondria (liver mitochondria; converted): < 6.7 mM | linear slope of body weight versus serum triglycerides, vs control and L-malic acid treated rats (Zucker fa/fa rat [6]): differs significantly | water consumption, means between groups (Zucker fa/fa rat [6]): did not differ | mean serum triglycerides compared to controls (Zucker fa/fa rat [6]; after 12 weeks and beyond of treatment, P≦0.05): lowered | mean serum triglycerides vs controls (Zucker fa/fa rat [6]; [9]): decreased below controls | effect on serum lipid levels (hypolipidemic effect) (Zucker fa/fa rat [6]): effective

O=C(O)C[C@H](O)C(=O)O [L-malic acid, L-malic acid, sodium salt, reference compound]
food consumption (rat chow consumed/rat/day) vs control (Zucker fa/fa rat [6]; 6 to 20 weeks of age): tended to eat more rat chow | mean serum levels of triglycerides vs control (Zucker fa/fa rat [6]; 8 to 24 weeks of age): no significant difference | mean serum total cholesterol vs control (Zucker fa/fa rat [6]; 8 to 24 weeks of age): no significant difference | water consumption, means between groups (Zucker fa/fa rat [6]; sodium salt): Significant differences | mean serum triglycerides vs controls (Zucker fa/fa rat [6]; after 24 weeks of age (18 weeks of treatment)): greater mean serum triglycerides than controls but not statistically significant | mean serum glucose vs control (Zucker fa/fa rat [6]; only weeks 8 and 16, P≦0.05): sporadically (only weeks 8 and 16) elevated | effect on serum lipid levels (hypolipidemic effect) (Zucker fa/fa rat [6]; listed as L-isomer of malic acid, sodium salt): no effect
